Where a name gives a salt, the structure may show the parent alone.
Experiments:
[1] = biological target: T1, 5-HT3 receptor (Cavia porcellus, UniProt O70212); test: 5-HT3 receptor agonistic activity: contractile response of isolated guinea pig distal colon strips; assay type: cell-based; conditions: read-out: Max. response
T1 construct: Distal colons were excised from male Hartley guinea pigs; from tissue; host or cells: distal colon strips of male Hartley guinea pigs
T1 sequence (O70212 20-490): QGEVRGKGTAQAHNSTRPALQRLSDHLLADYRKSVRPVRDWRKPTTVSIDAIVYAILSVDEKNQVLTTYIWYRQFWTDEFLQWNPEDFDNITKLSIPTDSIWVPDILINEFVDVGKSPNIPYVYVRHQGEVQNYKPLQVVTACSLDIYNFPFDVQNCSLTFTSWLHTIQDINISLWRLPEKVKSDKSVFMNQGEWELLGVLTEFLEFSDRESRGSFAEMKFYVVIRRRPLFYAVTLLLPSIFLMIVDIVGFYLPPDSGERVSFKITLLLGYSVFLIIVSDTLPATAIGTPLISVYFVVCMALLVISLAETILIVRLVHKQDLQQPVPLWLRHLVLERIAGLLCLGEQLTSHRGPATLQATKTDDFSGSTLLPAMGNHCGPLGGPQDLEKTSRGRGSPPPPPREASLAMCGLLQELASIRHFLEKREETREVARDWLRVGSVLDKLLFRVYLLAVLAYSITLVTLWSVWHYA
From the text: Distal colons were excised from male Hartley guinea pigs (500 to 800 g) to prepare strips of about 20 mm.
Each strip was longitudinally suspended in a Magnus tube, and contractile response was isometrically measured.

[2] = system: ICR male mice; test: Toxicity after i.v. administration to ICR male mice; assay type: in vivo; conditions: 100 mg/kg i.v., 8 to 9 weeks of age, n=5 to 6
From the text: Being low in toxicity, the compounds of the present invention are suitable for use as medicines.

[3] = system: 5-HT3 receptor; test: Receptor binding experiment

`c1ccc2c(c1)ccc1sc(Cn3ccnc3)nc12` [Example 30, 2-(1-imidazolylmethyl)naphtho[1,2-d]thiazole] was tested. Which Emax [1] did it give?
Its Emax is 78.2%.

How did the Emax [1] turn out when `c1ccc2c(c1)CCCc1sc(Cc3c[nH]cn3)nc1-2` [Example 4, 2-(4-Imidazolylmethyl)-5,6-dihydro-4H-benzo[6,7]-cyclohepto[1,2-d]thiazole fumarate] was run?
Its Emax is 50%.

For `c1ccc2c(c1)Cc1sc(Cn3ccnc3)nc1-2` [Example 10, 2-(1-Imidazolylmethyl)-8H-indeno[1,2-d]thiazole fumarate], which Emax [1] is on record?
The Emax was 60.9%.

How did the side effects [2] turn out when `O=C(O)/C=C/C(=O)O.c1ccc2c(c1)CCc1sc(Cc3c[nH]cn3)nc1-2` [Example 3, 2-(4-Imidazolylmethyl)-4,5-dihydronaphtho[1,2-d]thiazole fumarate] was run?
Its side effects is “do not cause serious grave side effects”.

And the Emax [1]?
The Emax was 80.3%.

`Cn1cncc1Cc1nc2c(s1)Cc1ccccc1-2` [Example 15, 2-[(1-Methyl-5-imidazolyl)methyl]-8H-indeno[1,2-d]thiazole] was tested. Which Emax [1] did it give?
The Emax was 42.6%.

With `c1ccc2c(c1)Cc1sc(Cc3c[nH]cn3)nc1-2` [Example 1, 2-(4-imidazolylmethyl)-8H-indeno[1,2-d]thiazole] as the compound, how does the “affinity for the 5-HT3 receptor” value [3] read?
Its value is “high affinity”.

And the side effects [2]?
Its side effects is “do not cause serious grave side effects”.

What about the Emax [1] of the same compound?
The Emax was 89.9%.

Source: patent US5565479A, “Condensed thiazole derivative, production process thereof and pharmaceutical composition thereof” (Yamanouchi Pharmaceutical Co., Ltd., priority 1992, dated 1996)
